Test results taken from patent publication EP0010358A1, “Beta-lactam compounds, processes for their preparation, compositions containing them, intermediates of use in their preparation and methods for the production thereof” (GLAXO GROUP LIMITED, priority 1978, dated 1980).
Converted amounts (≈) assume the structure as drawn. Where two headings read alike, the source gives them in different places.

Tests used:
Test in all cases: Determination of Minimum Inhibitory Concentrations (MIC), agar dilution
Type in all cases: cell-based
Micrococcus Sp 1810E = details: SP1810E
Method: (§1) Serial two-fold dilutions of freshly prepared test solutions were made into Oxoid No. 1 Nutrient agar with or without added enrichment and poured into petri dishes. Plates were inoculated with a multipoint inoculator with inoculum containing approximately 10^5 colony forming units of the organisms shown in the following Table, all of which organisms are clinical isolates. The MIC, quoted in the Table as µg/ml, was read after 18 hours incubation at 37°C as the lowest concentration which inhibited growth.

Staph. aureus 853E = details: Staphylococcus aureus
Method: as §1

H. influenzae 1184E = details: Haemophilus influenzae
Method: as §1

E. coli 851E = details: Escherichia coli
Method: as §1

K. aerogenes 1522E = details: Klebsiella aerogenes
Method: as §1

E. cloacae 1321E = details: Enterobacter cloacae
Method: as §1

S. marcescens 1324E = details: Serratia marcescens
Method: as §1

E. cloacae 1051E = details: Enterobacter cloacae
Method: as §1

[1] = Micrococcus Sp 1810E, clinical isolate, Oxoid No. 1 Nutrient agar, approx. 10^5 colony forming units, 18 hours at 37°C, read-out: MIC
[2] = Staph. aureus 853E, clinical isolate, Oxoid No. 1 Nutrient agar, approx. 10^5 colony forming units, 18 hours at 37°C, read-out: MIC
[3] = H. influenzae 1184E, clinical isolate, Oxoid No. 1 Nutrient agar, approx. 10^5 colony forming units, 18 hours at 37°C, read-out: MIC
[4] = E. coli 851E, clinical isolate, Oxoid No. 1 Nutrient agar, approx. 10^5 colony forming units, 18 hours at 37°C, read-out: MIC
[5] = K. aerogenes 1522E, clinical isolate, Oxoid No. 1 Nutrient agar, approx. 10^5 colony forming units, 18 hours at 37°C, read-out: MIC
[6] = E. cloacae 1321E, clinical isolate, Oxoid No. 1 Nutrient agar, approx. 10^5 colony forming units, 18 hours at 37°C, read-out: MIC
[7] = S. marcescens 1324E, clinical isolate, Oxoid No. 1 Nutrient agar, approx. 10^5 colony forming units, 18 hours at 37°C, read-out: MIC
[8] = E. cloacae 1051E, clinical isolate, Oxoid No. 1 Nutrient agar, approx. 10^5 colony forming units, 18 hours at 37°C, read-out: MIC

Row | SMILES | MIC (Micrococcus Sp 1810E; [1]) | MIC (Staph. aureus 853E; [2]) | MIC (H. influenzae 1184E; [3]) | MIC (E. coli 851E; [4]) | MIC (K. aerogenes 1522E; [5]) | MIC (E. cloacae 1321E; [6]) | MIC (S. marcescens 1324E; [7]) | MIC (E. cloacae 1051E; [8]) | MIC (Micrococcus Sp 1810E; Micrococcus, 18 h) | MIC (Staph. aureus 853E; 853E, 18 h) | MIC (H. influenzae 1184E; 1184E, 18 h) | MIC (E. coli 851E; 851E, 18 h) | MIC (K. aerogenes 1522E; 1522E, 18 h) | MIC (E. cloacae 1321E; 1321E, 18 h) | MIC (S. marcescens 1324E; 1324E, 18 h) | MIC (E. cloacae 1051E; 1051E, 18 h)
1 | O=CNCCC1=C(C(=O)O)N2C(=O)CC2S1 (racemic) [Example 4, (5RS)-2-(2-Formamidoethyl)pen-2-em-3-carboxylic acid] | 0.1 µg/mL (≈ 0.413 µM) | 2 µg/mL (≈ 8.26 µM) | 2 µg/mL (≈ 8.26 µM) | 1 µg/mL (≈ 4.13 µM) | 2 µg/mL (≈ 8.26 µM) | 1 µg/mL (≈ 4.13 µM) | 2 µg/mL (≈ 8.26 µM) | 1 µg/mL (≈ 4.13 µM) | – | – | – | – | – | – | – | –
2 | CC(=O)NCCC1=C(C(=O)[O-])N2C(=O)CC2S1.[K+] (racemic) [Example 7, Potassium (5RS)-2-(2-acetamidoethyl)pen-2-em-3-carboxylate] | – | – | – | – | – | – | – | – | 2 µg/mL | 2 µg/mL | 16 µg/mL | 8 µg/mL | 8 µg/mL | 4 µg/mL | 31 µg/mL | 16 µg/mL
3 | O=C(NCCC1=C(C(=O)O)N2C(=O)CC2S1)Nc1ccccc1 (racemic) [Example 11, Potassium (5RS)-2-(2-N-phenylureidoethyl)pen-2-em-3-carboxylate] | 0.2 µg/mL | 0.2 µg/mL | 16 µg/mL | 2 µg/mL | 2 µg/mL | 8 µg/mL | 8 µg/mL | 16 µg/mL | – | – | – | – | – | – | – | –
4 | CNC(=O)NCCC1=C(C(=O)O)N2C(=O)CC2S1 (racemic) [Example 10, Potassium (5RS)-2-(2-N-methylureidoethyl)pen-2-em-3-carboxylate] | 1 µg/mL | 62 µg/mL | 8 µg/mL | 8 µg/mL | 8 µg/mL | 8 µg/mL | 8 µg/mL | 16 µg/mL | – | – | – | – | – | – | – | –
